# Measured values published in PubChem BioAssay (NCI).
#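 These data come from cells grown in 96-well plates and exposed to compound for 48 hours at five concentrations. TGI denotes the concentration required for complete inhibition of growth.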
# Legend:
# Experiment in all cases: NCI anticancer screen, dose series, 48 h
# SN12C renal = system: SN12C renal
# RPMI-8226 leukemia = system: RPMI-8226 leukemia
# SW-620 colon = system: SW-620 colon
# SK-MEL-2 melanoma = system: SK-MEL-2 melanoma
# MALME-3M melanoma = system: MALME-3M melanoma
# HT29 colon = system: HT29 colon
# OVCAR-4 ovarian = system: OVCAR-4 ovarian
# NCI-H23 lung = system: NCI-H23 lung
# IGROV1 ovarian = system: IGROV1 ovarian
# ACHN renal = system: ACHN renal
# PC-3 prostate = system: PC-3 prostate
# TK-10 renal = system: TK-10 renal
# SR leukemia = system: SR leukemia
# SF-268 CNS = system: SF-268 CNS
# KM12 colon = system: KM12 colon
# NCI/ADR-RES ovarian = system: NCI/ADR-RES ovarian
# RXF 393 renal = system: RXF 393 renal
# HCT-15 colon = system: HCT-15 colon
# A498 renal = system: A498 renal
# HS 578T breast = system: HS 578T breast
# HL-60(TB) leukemia = system: HL-60(TB) leukemia
# OVCAR-3 ovarian = system: OVCAR-3 ovarian
# OVCAR-8 ovarian = system: OVCAR-8 ovarian
# MDA-MB-435 = system: MDA-MB-435
# HOP-92 NSCLC = system: HOP-92 NSCLC
# OVCAR-5 ovarian = system: OVCAR-5 ovarian
# NCI-H226 lung = system: NCI-H226 lung
# DU-145 prostate = system: DU-145 prostate
# HCT-116 colon = system: HCT-116 colon
# MDA-MB-231 breast = system: MDA-MB-231 breast
# A549 NSCLC = system: A549 NSCLC
# UACC-62 melanoma = system: UACC-62 melanoma
# SF-295 CNS = system: SF-295 CNS
# U251 CNS = system: U251 CNS
# MDA-N = system: MDA-N
# T-47D breast = system: T-47D breast
# MCF7 breast = system: MCF7 breast
# CCRF-CEM leukemia = system: CCRF-CEM leukemia
# LOX IMVI melanoma = system: LOX IMVI melanoma
# SNB-19 CNS = system: SNB-19 CNS
# SK-MEL-5 melanoma = system: SK-MEL-5 melanoma
# HOP-62 NSCLC = system: HOP-62 NSCLC
# BT-549 breast = system: BT-549 breast
# SK-MEL-28 melanoma = system: SK-MEL-28 melanoma
# NCI-H522 lung = system: NCI-H522 lung
# UO-31 renal = system: UO-31 renal
# UACC-257 melanoma = system: UACC-257 melanoma
# CAKI-1 renal = system: CAKI-1 renal
# COLO 205 colon = system: COLO 205 colon
# SK-OV-3 ovarian = system: SK-OV-3 ovarian
# EKVX NSCLC = system: EKVX NSCLC
# MOLT-4 leukemia = system: MOLT-4 leukemia
# K-562 leukemia = system: K-562 leukemia
# SNB-75 CNS = system: SNB-75 CNS
# 786-0 renal = system: 786-0 renal
# M14 melanoma = system: M14 melanoma
# HCC-2998 colon = system: HCC-2998 colon
# SF-539 CNS = system: SF-539 CNS
# NCI-H460 lung = system: NCI-H460 lung
compound,measurement,setting,value
CN1C2CCC1CC(OC(c1ccccc1)c1ccccc1)C2 (stereo not drawn),TGI,SN12C renal,> 100 µM
same,TGI,RPMI-8226 leukemia,33.4 µM
same,TGI,SW-620 colon,27.6 µM
same,TGI,SK-MEL-2 melanoma,32.1 µM
same,TGI,MALME-3M melanoma,28.1 µM
same,TGI,HT29 colon,23 µM
same,TGI,OVCAR-4 ovarian,> 100 µM
same,TGI,NCI-H23 lung,83.3 µM
same,TGI,IGROV1 ovarian,38.8 µM
same,TGI,ACHN renal,59.2 µM
same,TGI,PC-3 prostate,37.3 µM
same,TGI,TK-10 renal,44.5 µM
same,TGI,SR leukemia,42 µM
same,TGI,SF-268 CNS,41.5 µM
same,TGI,KM12 colon,37.9 µM
same,TGI,NCI/ADR-RES ovarian,34.3 µM
same,TGI,RXF 393 renal,42.3 µM
same,TGI,HCT-15 colon,78.8 µM
same,TGI,A498 renal,28.4 µM
same,TGI,HS 578T breast,33.5 µM
same,TGI,HL-60(TB) leukemia,36.2 µM
same,TGI,OVCAR-3 ovarian,47 µM
same,TGI,OVCAR-8 ovarian,29.9 µM
same,TGI,MDA-MB-435,29.8 µM
same,TGI,HOP-92 NSCLC,29.1 µM
same,TGI,OVCAR-5 ovarian,41.2 µM
same,TGI,NCI-H226 lung,72.6 µM
same,TGI,DU-145 prostate,> 100 µM
same,TGI,HCT-116 colon,25.1 µM
same,TGI,MDA-MB-231 breast,32.7 µM
same,TGI,A549 NSCLC,39.7 µM
same,TGI,UACC-62 melanoma,30.4 µM
same,TGI,SF-295 CNS,23.5 µM
same,TGI,U251 CNS,28.9 µM
same,TGI,MDA-N,28.8 µM
same,TGI,T-47D breast,80.1 µM
same,TGI,MCF7 breast,26.9 µM
same,TGI,CCRF-CEM leukemia,29.9 µM
same,TGI,LOX IMVI melanoma,29.4 µM
same,TGI,SNB-19 CNS,48.3 µM
same,TGI,SK-MEL-5 melanoma,29.1 µM
same,TGI,HOP-62 NSCLC,43 µM
same,TGI,BT-549 breast,41.2 µM
same,TGI,SK-MEL-28 melanoma,27.8 µM
same,TGI,NCI-H522 lung,28.1 µM
same,TGI,UO-31 renal,40.1 µM
same,TGI,UACC-257 melanoma,26.6 µM
same,TGI,CAKI-1 renal,> 100 µM
same,TGI,COLO 205 colon,23.7 µM
same,TGI,SK-OV-3 ovarian,47.1 µM
same,TGI,EKVX NSCLC,91.2 µM
same,TGI,MOLT-4 leukemia,73.6 µM
same,TGI,K-562 leukemia,34.5 µM
same,TGI,SNB-75 CNS,72.8 µM
same,TGI,786-0 renal,27 µM
same,TGI,M14 melanoma,27.9 µM
O=C1OC(c2ccco2)=N/C1=C\c1ccc(Cl)c(Cl)c1,TGI,SN12C renal,> 100 µM
same,TGI,RPMI-8226 leukemia,> 100 µM
same,TGI,SW-620 colon,> 100 µM
same,TGI,SK-MEL-2 melanoma,> 100 µM
same,TGI,MALME-3M melanoma,> 100 µM
same,TGI,HT29 colon,> 100 µM
same,TGI,OVCAR-4 ovarian,> 100 µM
same,TGI,NCI-H23 lung,> 100 µM
same,TGI,IGROV1 ovarian,> 100 µM
same,TGI,ACHN renal,> 100 µM
same,TGI,PC-3 prostate,> 100 µM
same,TGI,TK-10 renal,> 100 µM
same,TGI,SR leukemia,> 100 µM
same,TGI,HCC-2998 colon,> 100 µM
same,TGI,SF-268 CNS,> 100 µM
same,TGI,KM12 colon,> 100 µM
same,TGI,RXF 393 renal,> 100 µM
same,TGI,HCT-15 colon,> 100 µM
same,TGI,A498 renal,> 100 µM
same,TGI,HS 578T breast,> 100 µM
same,TGI,HL-60(TB) leukemia,> 100 µM
same,TGI,OVCAR-3 ovarian,> 100 µM
same,TGI,OVCAR-8 ovarian,> 100 µM
same,TGI,MDA-MB-435,> 100 µM
same,TGI,HOP-92 NSCLC,> 100 µM
same,TGI,OVCAR-5 ovarian,> 100 µM
same,TGI,NCI-H226 lung,> 100 µM
same,TGI,DU-145 prostate,> 100 µM
same,TGI,HCT-116 colon,> 100 µM
same,TGI,MDA-MB-231 breast,> 100 µM
same,TGI,A549 NSCLC,> 100 µM
same,TGI,SF-539 CNS,> 100 µM
same,TGI,UACC-62 melanoma,> 100 µM
same,TGI,SF-295 CNS,> 100 µM
same,TGI,U251 CNS,> 100 µM
same,TGI,MDA-N,> 100 µM
same,TGI,T-47D breast,> 100 µM
same,TGI,MCF7 breast,> 100 µM
same,TGI,CCRF-CEM leukemia,> 100 µM
same,TGI,LOX IMVI melanoma,> 100 µM
same,TGI,SNB-19 CNS,> 100 µM
same,TGI,SK-MEL-5 melanoma,> 100 µM
same,TGI,HOP-62 NSCLC,94.6 µM
same,TGI,BT-549 breast,> 100 µM
same,TGI,SK-MEL-28 melanoma,> 100 µM
same,TGI,NCI-H522 lung,> 100 µM
same,TGI,UACC-257 melanoma,> 100 µM
same,TGI,CAKI-1 renal,> 100 µM
same,TGI,COLO 205 colon,> 100 µM
same,TGI,SK-OV-3 ovarian,> 100 µM
same,TGI,EKVX NSCLC,> 100 µM
same,TGI,MOLT-4 leukemia,> 100 µM
same,TGI,K-562 leukemia,> 100 µM
same,TGI,SNB-75 CNS,> 100 µM
same,TGI,786-0 renal,> 100 µM
same,TGI,NCI-H460 lung,> 100 µM
same,TGI,M14 melanoma,> 100 µM
